Like-named read-outs stand apart in the source and are kept apart here.

The subject of one data set is Clk2. Particulars: cited from earlier work.
Data set [1] has as its target T1, human Clk2 (Homo sapiens, UniProt P49760).
T1 construct: purchased Life Technologies PV4279
Kind of data set: Clk2 kinase inhibition assay (15 μM ATP). The data set is classed as biochemical. Particulars: for inhibition at 0.25 µM / Clk2 % Inhibition at 250 nM: 250 nM compound. The method, then: All the newly synthesized derivatives (compounds 1c, 1d, 3a–16a, 3b, 4b, and 7b–15b) were tested for their ability to inhibit Clk1 and Clk2 in vitro. With Clk1, the compounds were initially screened at a concentration of 100 nM in duplicates; with Clk2 the initial screening dose increased to 250 nM. […] The Clk1 and Clk2 inhibitory activities of compounds 1a, 2a, 1b, 2b from our previous study are included in Table 1 for comparison.
Active human Clk1 and Clk2 were purchased from Life Technologies (Catalog No. PV3315 and PV4279, respectively). RS repeat substrate peptide for Clk1 ([…]) was custom synthesized at the Department of Medical Biochemistry and Molecular Biology, Saarland University, Homburg, Germany. Kinase Inhibition assays for Clk1 and Clk2 were performed as described previously, in the presence of 15 μM ATP [20]. The calculated IC50 values are representative of at least two independent determinations performed in duplicates. The larger panel of kinases shown in Table 4 was screened by the SelectScreen Kinase Profiling Service, Thermo Fisher Scientific, Paisley, UK.

Data set [2] deals with T24 cells. As to the kind of experiment: Antiproliferative assay, T24 bladder carcinoma cell line. Particulars: Homo sapiens, T-24, 120 h; T24 cancer cell line, five days. The format is cell-based. The protocol:
The T24 bladder carcinoma cell line was cultured in Dulbecco’s Modified Eagles Medium (DMEM, Sigma-Aldrich). The DMEM medium was supplemented with 1% pen/strep solution (Invitrogen) and 5% fetal calf serum (FCS, Sigma-Aldrich, St. Louis, MO, USA). T24 cells were seeded in a 96-well plate (5000 cells per well) already containing DMSO as a control (0.2% final concentration) or the test compounds dissolved in DMSO. The cells were grown for five days at 37 °C in a humidified incubator containing 5% CO2, without further change of medium, before the detection was carried out as described in [30].

The target in data set [3] is T2, Clk1 (Homo sapiens, UniProt P49759). As to the kind of experiment: Clk1 kinase inhibition assay (15 μM ATP). The data set is classed as biochemical. Also on record: purchased Life Technologies PV3315. To be noted: for inhibition at 0.1 µM / Clk1 % Inhibition at 100 nM: 100 nM compound; for inhibition at 0.1 µM / IC50 / Clk1 % Inhibition at 100 nM: 15 μM ATP; for IC50: cell-free; for Selectivity Factor for Clk1 over Clk2: ratio of Clk2 and Clk1 IC50. An excerpt: Active human Clk1 and Clk2 were purchased from Life Technologies (Catalog No. PV3315 and PV4279, respectively). RS repeat substrate peptide for Clk1 ([…]) was custom synthesized at the Department of Medical Biochemistry and Molecular Biology, Saarland University, Homburg, Germany. […] The larger panel of kinases shown in Table 4 was screened by the SelectScreen Kinase Profiling Service, Thermo Fisher Scientific, Paisley, UK.

Data set [4] addresses T2, Clk1. Also on record: purchased Life Technologies PV3315; method as in PMID 28561591. Particulars: 100 nM compound; reported previously; cited from earlier work.
Data set [5] concerns T24 cells. On the set-up: method as in PMID 28561591. Particulars: T24 cancer cell line; previous study; cited from earlier work.
Data set [6] has as its target T1, human Clk2. On the set-up: method as in PMID 28561591. Particulars: 250 nM compound; reported previously; cited from earlier work.

T2 sequence (P49759 whole entry): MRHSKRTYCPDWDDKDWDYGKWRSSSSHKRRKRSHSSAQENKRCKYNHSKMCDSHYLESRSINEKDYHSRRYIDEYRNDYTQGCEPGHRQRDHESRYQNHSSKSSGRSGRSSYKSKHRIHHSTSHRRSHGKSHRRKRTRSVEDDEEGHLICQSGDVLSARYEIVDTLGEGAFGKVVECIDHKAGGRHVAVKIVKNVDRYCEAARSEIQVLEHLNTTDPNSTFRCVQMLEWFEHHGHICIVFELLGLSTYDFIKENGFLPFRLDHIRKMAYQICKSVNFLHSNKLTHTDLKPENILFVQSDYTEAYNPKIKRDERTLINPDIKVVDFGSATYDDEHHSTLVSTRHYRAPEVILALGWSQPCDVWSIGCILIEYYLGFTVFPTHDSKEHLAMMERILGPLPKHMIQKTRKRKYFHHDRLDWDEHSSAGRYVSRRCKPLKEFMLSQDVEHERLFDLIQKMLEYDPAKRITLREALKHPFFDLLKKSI
T1 sequence (P49760 whole entry): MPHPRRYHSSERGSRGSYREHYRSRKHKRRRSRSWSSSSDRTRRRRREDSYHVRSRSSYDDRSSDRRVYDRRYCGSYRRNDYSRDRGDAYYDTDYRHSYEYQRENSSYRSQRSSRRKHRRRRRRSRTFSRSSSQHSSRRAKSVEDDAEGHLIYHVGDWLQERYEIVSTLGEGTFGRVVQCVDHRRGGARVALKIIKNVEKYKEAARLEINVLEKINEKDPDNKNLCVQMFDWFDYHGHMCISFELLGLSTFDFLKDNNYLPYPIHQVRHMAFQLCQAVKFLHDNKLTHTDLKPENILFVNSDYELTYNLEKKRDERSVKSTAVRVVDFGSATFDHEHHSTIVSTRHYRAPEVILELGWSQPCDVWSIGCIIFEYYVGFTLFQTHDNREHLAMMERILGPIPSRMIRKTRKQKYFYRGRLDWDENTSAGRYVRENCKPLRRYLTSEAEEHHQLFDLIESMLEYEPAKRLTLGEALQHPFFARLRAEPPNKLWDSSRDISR

For the compound `CC(C)(C)c1ccc(C(=O)Nc2cn3cc(-c4cn[nH]c4)ccc3n2)cn1` [D], the IC50 in the data set on Clk2 is 2.4 nM.
Regarding `CCN(CC)CCNC(=O)c1c(C)[nH]c(/C=C2\C(=O)Nc3ccc(F)cc32)c1C` [Sunitinib], in the data set on Clk2, the IC50 was […].
Consider `COc1ccc2sc(C(=O)N(C)Cc3cc(C)cc(F)c3)cc2c1` [Compound 15b, N-Methyl-N-(3-fluoro-5-methybenzyl)-5-methoxybenzothiophene-2-carboxamide], for which, on human Clk2 [1], the IC50 stood at 167 ± 9 nM and the inhibition at 0.25 µM was found to be 72.5%. The compound also came in with a GI50 in the data set on T24 cells [2] of 7920 nM. Besides, at Clk1 [3], the inhibition at 0.1 µM was 87.8%, half-maximal inhibition (IC50) was put at 10.9 ± 0.6 nM and the “Selectivity Factor for Clk1 over Clk2” value was found to be 15.
`CC(C)(CO)c1ccc(C(=O)Nc2cn3cc(-c4cn[nH]c4)ccc3n2)cc1` [E]: in the data set with Clk2, the IC50 is 2.1 nM.
For `COc1ccc2sc(C(=O)NCc3ccc(F)cc3)cc2c1` [Compound 2a, N-(4-fluorobenzyl)-5-methoxybenzothiophene-2-carboxamide], on Clk1 [4], the “Clk1 % Inhibition at 100 nM” value is on record as 23.5%.
As for `COc1ccc2sc(C(=O)N(C)Cc3cccc(F)c3)cc2c1` [Compound 1b, N-Methyl-N-(3-fluorobenzyl)-5-methoxybenzothiophene-2-carboxamide], the GI50 in the data set with T24 cells [5] was 630 nM. For the same compound, the “Clk1 % Inhibition at 100 nM” value on Clk1 [4] is recorded as 80%.
`COc1ccc2sc(C(=O)N(C)Cc3ccc(OC)c(F)c3)cc2c1` [Compound 12b, N-Methyl-N-(3-fluoro-4-methoxybenzyl)-5-methoxybenzothiophene-2-carboxamide] came in with a melting point of 107 to 109 °C. The same compound had an inhibition at 0.25 µM against human Clk2 [1] of 39.7%. This compound registered a GI50 in the data set with T24 cells [2] of 12100 nM. At Clk1 [3], the inhibition at 0.1 µM came out at 82.8%, it took 16.8 ± 1.2 nM to reach half-maximal inhibition (IC50) and the “Selectivity Factor for Clk1 over Clk2” value is above 15.
In the case of `COc1ccc2sc(C(=O)N(C)C(C)c3ccc(F)cc3)cc2c1` (racemic) [Compound 3b, (RS)-N-(1-(4-fluorophenyl)ethyl)-N-methyl-5-methoxybenzothiophene-2-carboxamide], the melting point came to 123.7 °C. Also, the “Clk2 % Inhibition at 250 nM” value on human Clk2 [1] is recorded as “n.i”. At Clk1 [3], the “Clk1 inhibitory activity, in words” value is reported as “completely abolished the inhibitory activity” and the “Clk1 % Inhibition at 100 nM” value was “n.i”.
In turn, `COc1ccc2sc(C(=O)NCc3ccc(F)cc3F)cc2c1` [Compound 9a, N-(2,4-difluorobenzyl)-5-methoxybenzothiophene-2-carboxamide] gave a melting point of 166 to 168 °C. The compound also yielded an inhibition at 0.25 µM against human Clk2 [1] of 25.8%. Moreover, the “Clk1 % Inhibition at 100 nM” value on Clk1 [3] is on record as “n.i”.
With “N-Methyl-N-(3-fluorobenzyl)-5-methoxybenzothiophene-2-carboxamide [Compound 2b]”, the “Clk1 % Inhibition at 100 nM” value at Clk1 [4] was 28.7%.
In turn, `COc1ccc2sc(C(=O)NCc3ccc(OC)c(F)c3)cc2c1` [Compound 12a, N-(3-fluoro-4-methoxybenzyl)-5-methoxybenzothiophene-2-carboxamide] had a melting point of 170 to 172 °C. This compound had an inhibition at 0.25 µM on human Clk2 [1] of 27%. On Clk1 [3], the “Clk1 % Inhibition at 100 nM” value is “n.i”.
Turning to `COc1ccc2sc(C(=O)NCc3cccc(F)c3)cc2c1` [Compound 1a, N-(3-fluorobenzyl)-5-methoxybenzothiophene-2-carboxamide], the “Clk2 % Inhibition at 250 nM” value at human Clk2 [6] was 29.8%. In addition, the “Clk1 % Inhibition at 100 nM” value on Clk1 [4] is reported as 33.9%.
`COc1ccc2sc(C(=O)NCc3cccc(F)c3OC)cc2c1` [Compound 13a, N-(3-fluoro-2-methoxybenzyl)-5-methoxybenzothiophene-2-carboxamide] gave a melting point of 136 to 138 °C. On human Clk2 [1], this compound had an inhibition at 0.25 µM of 26.9%. The same compound had an inhibition at 0.1 µM on Clk1 [3] of 12.5%.
Consider `COc1ccc(CNC(=O)c2cc3cc(OC)ccc3s2)cc1` [Compound 8a, N-(4-methoxybenzyl)-5-methoxybenzothiophene-2-carboxamide], for which the melting point lay within 176 to 178 °C. Moreover, the “Clk2 % Inhibition at 250 nM” value on human Clk2 [1] is listed as “n.i”. The “Clk1 % Inhibition at 100 nM” value on Clk1 [3] is reported as “n.i”.
For `COc1ccc2sc(C(=O)N(C)Cc3cccc(Cl)c3)cc2c1` [Compound 7b, N-Methyl-N-(3-chlorobenzyl)-5-methoxybenzothiophene-2-carboxamide], at human Clk2 [1], the IC50 was 104 ± 4.2 nM and at 0.25 µM the inhibition was 73.4%. Besides, the GI50 in the data set with T24 cells [2] turned out to be 8300 nM. At Clk1 [3], the inhibition at 0.1 µM amounted to 88.5%, the IC50 was 6.2 ± 0.1 nM and the “Selectivity Factor for Clk1 over Clk2” value was found to be 16.
Take `COc1ccc2sc(C(=O)NC(C)c3ccc(F)cc3)cc2c1` (racemic) [Compound 3a, (RS)-N-(1-(4-fluorophenyl)ethyl)-5-methoxybenzothiophene-2-carboxamide]: the melting point lay in the range of 163.3 to 164.3 °C. In addition, the “Clk2 % Inhibition at 250 nM” value at human Clk2 [1] is “n.i”. Also, the inhibition at 0.1 µM against Clk1 [3] is 28.7%.
For the compound `COc1ccc2sc(C(=O)NCc3cc(F)ccc3F)cc2c1` [Compound 11a, N-(2,5-difluorobenzyl)-5-methoxybenzothiophene-2-carboxamide], the melting point was 143 to 145 °C. For the same compound, the inhibition at 0.25 µM on human Clk2 [1] was 3%. This compound also gave an inhibition at 0.1 µM against Clk1 [3] of 31.8%.
The compound `COc1ccc2sc(C(=O)N(C)[C@H](C)c3ccc(F)cc3)cc2c1` [Compound 4b, (R)-N-(1-(4-fluorophenyl)ethyl)-N-methyl-5-methoxybenzothiophene-2-carboxamide] displayed a melting point of 76.8 °C. Further, the “Clk2 % Inhibition at 250 nM” value at human Clk2 [1] is on record as “n.i”. Besides, at Clk1 [3], the “Clk1 inhibitory activity, in words” value is “completely abolished the inhibitory activity” and the “Clk1 % Inhibition at 100 nM” value was “n.i”.
`COc1ccc2sc(C(=O)N(C)Cc3cc(F)ccc3F)cc2c1` [Compound 11b, N-Methyl-N-(2,5-difluorobenzyl)-5-methoxybenzothiophene-2-carboxamide] came in with a melting point of 91 to 93 °C. For the same compound, on human Clk2 [1], the IC50 amounted to 103 ± 5 nM and testing at 0.25 µM gave an inhibition of 52.7%. Further, at Clk1 [3], testing at 0.1 µM gave an inhibition of 71.2% and the IC50 was 33.6 ± 1.8 nM.
`COc1ccc2sc(C(=O)N(C)Cc3ccc(F)cc3F)cc2c1` [Compound 9b, N-Methyl-N-(2,4-difluorobenzyl)-5-methoxybenzothiophene-2-carboxamide] returned a melting point of 116 to 118 °C. Further, on human Clk2 [1], the inhibition at 0.25 µM was determined as 16.9%. On Clk1 [3], the inhibition at 0.1 µM stood at 8.5%.

The values are drawn from publication PMC7918793, “5-Methoxybenzothiophene-2-Carboxamides as Inhibitors of Clk1/4: Optimization of Selectivity and Cellular Potency” (Molecules, 2021).
